Measured values reported in US6734205B2, “Substituted guanidine derivatives” (Sumitomo Pharmaceuticals Company Limited, priority 1999, dated 2004).
Where a name gives a salt, the structure may show the parent alone.

Molecular target: T1, Na^+/H^+ exchange transport system (Rattus norvegicus, UniProt P26431)
T1 construct: a pH change in isolated ventricular myocytes (rat) under an acidic load; endogenous in cells; host or cells: isolated rat ventricular myocytes
Experiment: Inhibitory effect on the Na^+/H^+ exchange transport system (in vitro), pH change in isolated ventricular myocytes under an acidic load
Assay type: cell-based
Protocol: Inhibitory Effect on the Na^+/H^+ Exchange Transport System (in vitro)
A test was carried out according to the method of Iemori et al. (J. Hypertension, 8, 153(1990)). In detail, inhibitory effect on the Na^+/H^+ exchange transport system was evaluated by using as an indication a pH change in isolated ventricular myocytes (rat) under an acidic load.

T1 sequence (P26431 whole entry): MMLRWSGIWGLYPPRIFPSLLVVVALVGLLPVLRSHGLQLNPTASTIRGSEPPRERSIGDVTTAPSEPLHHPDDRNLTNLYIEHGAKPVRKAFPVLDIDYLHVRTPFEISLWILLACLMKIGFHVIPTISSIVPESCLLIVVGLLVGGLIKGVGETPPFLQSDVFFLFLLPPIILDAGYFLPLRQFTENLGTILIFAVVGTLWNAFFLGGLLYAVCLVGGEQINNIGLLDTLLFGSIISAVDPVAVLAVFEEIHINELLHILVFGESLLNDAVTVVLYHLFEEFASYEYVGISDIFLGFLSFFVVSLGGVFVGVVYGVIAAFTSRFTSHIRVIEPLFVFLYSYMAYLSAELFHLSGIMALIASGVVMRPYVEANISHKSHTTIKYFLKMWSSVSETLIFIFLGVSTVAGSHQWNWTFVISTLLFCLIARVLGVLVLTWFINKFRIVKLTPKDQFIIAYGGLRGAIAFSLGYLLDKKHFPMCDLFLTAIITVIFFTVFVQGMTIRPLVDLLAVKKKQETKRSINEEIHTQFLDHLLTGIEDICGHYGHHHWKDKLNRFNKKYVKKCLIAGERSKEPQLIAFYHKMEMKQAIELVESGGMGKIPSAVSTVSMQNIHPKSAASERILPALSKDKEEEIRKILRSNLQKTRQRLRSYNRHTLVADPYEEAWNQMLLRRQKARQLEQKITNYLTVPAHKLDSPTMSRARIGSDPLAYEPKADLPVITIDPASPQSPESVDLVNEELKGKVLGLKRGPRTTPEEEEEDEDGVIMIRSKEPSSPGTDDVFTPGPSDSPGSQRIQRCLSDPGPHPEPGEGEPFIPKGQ

| IC50 [nM] | Compound |
| --- | --- |
| 70 | Cc1cc(OS(=O)(=O)O)cc2c1cc(C(=O)NC(=N)N)n2C [Example 2, 2-[[[Amino(imino)methyl]amino]carbonyl]-1,4-dimethyl-1H-indol-6-yl Hydrogen Sulfate] |
| 200 | Cc1ccc(OS(=O)(=O)O)c2c1cc(C(=O)NC(=N)N)n2C [Example 4, 2-[[[amino(imino)methyl]amino]-carbonyl]-1,4-dimethyl-1H-indol-7-yl Hydrogen Sulfate] |
| 10000 | Cc1c(OS(=O)(=O)O)ccc2c1cc(C(=O)NC(=N)N)n2C [Example 1, 2-[[[amino(imino)methyl]amino]-carbonyl]-1,4-dimethyl-1H-indol-5-yl Hydrogen Sulfate] |

Tested on: not given
Experiment: not given

| melting point | Compound |
| --- | --- |
| 210 to 225 °C (dec.) | Cn1c(C(=O)NC(=N)N)cc2c(Cl)ccc(OCC(=O)O)c21 [Example 24, [[2-[[[Amino(imino)methyl]amino]carbonyl]-4-chloro-1-methyl-1H-indol-7-yl]oxy]acetic Acid] |
| 303 to 304 °C (dec.) | Cc1cc(OS(=O)(=O)O)cc2c1cc(C(=O)NC(=N)N)n2C (as salt: sulfate) [Example 2, 2-[[[Amino(imino)methyl]amino]carbonyl]-1,4-dimethyl-1H-indol-6-yl Hydrogen Sulfate] |
| ≥ 300 °C | Cn1c(C(=O)NC(=N)N)cc2c(C(F)(F)F)cc(CS(=O)(=O)O)cc21 [Example 37, [2-[[[amino(imino)methyl]amino]-carbonyl]-1-methyl-4-(trifluoromethyl)-1H-indol-6-yl]-methanesulfonic Acid] |
| 277 °C (dec.) | Cn1c(C(=O)NC(=N)N)cc2c(C(F)(F)F)cc(CCP(=O)(O)O)cc21 [Example 51, 2-[2-[[[amino(imino)methyl]-amino]carbonyl]-1-methyl-4-(trifluoromethyl)-1H-indol-6-yl]ethylphosphonic Acid] |
| 234 °C (dec.) | Br.Cn1c(C(=O)NC(=N)N)cc2c(C(F)(F)F)ccc(CCP(=O)(O)O)c21 |
| 270 °C (dec.) | Cc1ccc(OCP(=O)(O)O)c2c1cc(C(=O)NC(=N)N)n2C [Example 50, [[2-[[[Amino(imino)methyl]amino]carbonyl]-1,4-dimethyl-1H-indol-7-yl]oxy]methylphosphonic Acid] |
| 258 °C (dec.) | CS(=O)(=O)O.Cn1c(C(=O)NC(=N)N)cc2c(C(F)(F)F)ccc(P(=O)(O)O)c21 |
| 292 °C (dec.) | Cn1c(C(=O)NC(=N)N)cc2c(C(F)(F)F)cc(OCP(=O)(O)O)cc21 [Example 45, [[2-[[[amino(imino)methyl]-amino]carbonyl]-1-methyl-4-(trifluoromethyl)-1H-indol-6-yl]oxy]-methylphosphonic Acid] |
| > 315 °C (dec.) | Cc1ccc(OS(=O)(=O)O)c2c1cc(C(=O)NC(=N)N)n2C (as salt: sulfate) [Example 4, 2-[[[amino(imino)methyl]amino]-carbonyl]-1,4-dimethyl-1H-indol-7-yl Hydrogen Sulfate] |
| 298 °C (dec.) | Cn1c(C(=O)NC(=N)N)cc2c(Cl)cc(OS(=O)(=O)O)cc21 (as salt: sulfate) [Example 11, 2-[[[Amino(imino)methyl]amino]carbonyl]-4-chloro-1-methyl-1H-indol-6-yl Hydrogen Sulfate] |
| 267 to 268 °C (dec.) | Cc1c(OS(=O)(=O)O)ccc2c1cc(C(=O)NC(=N)N)n2C (as salt: sulfate) [Example 1, 2-[[[amino(imino)methyl]amino]-carbonyl]-1,4-dimethyl-1H-indol-5-yl Hydrogen Sulfate] |
| ≥ 300 °C | Cc1cc(OCP(=O)(O)O)cc2c1cc(C(=O)NC(=N)N)n2C [Example 49, [[2-[[[Amino(imino)methyl]amino]carbonyl]-1,4-dimethyl-1H-indol-6-yl]oxy]methylphosphonic Acid] |
| ≥ 300 °C (dec.) | Cc1cc(CCS(=O)(=O)O)cc2c1cc(C(=O)NC(=N)N)n2C [Example 42, 2-[2-[[[Amino(imino)methyl]amino]carbonyl]-1,4-dimethyl-1H-indol-6-yl]ethanesulfonic Acid] |
| ≥ 300 °C | Cn1c(C(=O)NC(=N)N)cc2c(C(F)(F)F)cc(CCS(=O)(=O)O)cc21 [Example 39, 2-[2-[[[amino(imino)methyl]-amino]carbonyl]-1-methyl-4-(trifluoromethyl)-1H-indol-6-yl]ethanesulfonic Acid] |
